Experimental data from the supplement of paper PMC10307832.

Columns and labels:
Test in all cases: relative viability (nuclei count vs DMSO), 5 days (fraction); higher = more cells survive
TGX 221 + Foretinib = compound: CC1=CN2C(=O)C=C(N=C2C(=C1)C(C)NC3=CC=CC=C3)N4CCOCC4 [TGX 221] + COc1cc2c(Oc3ccc(NC(=O)C4(C(=O)Nc5ccc(F)cc5)CC4)cc3F)ccnc2cc1OCCCN1CCOCC1 [Foretinib] (partner 0.25 µM)
Method in brief: (§1)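 Lung cancer cell lines were pin-tool dosed in 1536-well plates on the day after seeding, with either a lone drug or a fixed anchor-drug dose plus five library-drug doses (not always all listed) in √10 steps. Nuclei were counted on 4× images after 5 days. Relative viability is the ratio of treated-well to vehicle-well nuclei counts, with each value a median of duplicate plates.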

TGX 221 + Bortezomib = compound: CC1=CN2C(=O)C=C(N=C2C(=C1)C(C)NC3=CC=CC=C3)N4CCOCC4 [TGX 221] + CC(C)C[C@H](NC(=O)[C@H](Cc1ccccc1)NC(=O)c1cnccn1)B(O)O [Bortezomib] (partner 0.002 µM)
Method in brief: as §1

[1] = compound: C1=CC=C(C(=C1)C2=CC=C(C=C2)C3=CSC4=C3C(=C(C(=O)N4)C#N)O)O + Nc1ncn([C@H]2C[C@H](O)[C@@H](CO)O2)c(=O)n1 [Decitabine] (partner 2 µM)
Method in brief: as §1

Cell Line | relative viability (TGX 221 + Foretinib; first compound 0.08 µM) | relative viability (TGX 221 + Foretinib; first compound 0.253 µM) | relative viability (TGX 221 + Foretinib; first compound 0.8 µM) | relative viability (TGX 221 + Foretinib; first compound 2.53 µM) | relative viability (TGX 221 + Foretinib; first compound 8 µM) | relative viability (TGX 221 + Bortezomib; first compound 0.08 µM) | relative viability (TGX 221 + Bortezomib; first compound 0.253 µM) | relative viability (TGX 221 + Bortezomib; first compound 0.8 µM) | relative viability (TGX 221 + Bortezomib; first compound 2.53 µM) | relative viability (TGX 221 + Bortezomib; first compound 8 µM) | relative viability ([1]; first compound 0.08 µM) | relative viability ([1]; first compound 0.253 µM) | relative viability ([1]; first compound 0.8 µM) | relative viability ([1]; first compound 2.53 µM) | relative viability ([1]; first compound 8 µM)
EKVX | 0.691 | 0.914 | 0.763 | 0.691 | 0.925 | 1.02 | 1.11 | 0.939 | 0.985 | 0.986 | 0.396 | 0.412 | 0.857 | 0.695 | 0.326
A-427 | 1.15 | 0.987 | 1.12 | 1.05 | 1.06 | 0.954 | 0.99 | 0.965 | 0.942 | 0.993 | 0.517 | 0.595 | 0.567 | 0.563 | 0.656
NCI-H23 | 0.84 | 0.861 | 1.03 | 0.87 | 0.65 | 0.861 | 1.21 | 1.11 | 1.03 | 0.963 | 0.305 | 0.33 | 0.337 | 0.327 | 0.312
NCI-H596 | 0.844 | 0.928 | 0.856 | 0.894 | 0.797 | 1.17 | 1.21 | 0.938 | 0.871 | 0.948 | 1.02 | 1.79 | 1.09 | 0.898 | 0.891
NCI-H2087 | 1.01 | 1.01 | 1.09 | 1.04 | 1.1 | 0.832 | 0.759 | 0.916 | 0.956 | 1.06 | 0.279 | 0.31 | 0.284 | 0.259 | 0.254
HCC-78 | 0.581 | 0.551 | 0.586 | 0.478 | 0.502 | 0.435 | 0.38 | 0.429 | 0.24 | 0.335 | 0.75 | 0.82 | 0.655 | 0.808 | 0.642
NCI-H520 | 0.582 | 0.544 | 0.509 | 0.372 | 0.427 | 0.345 | 0.457 | 0.56 | 0.263 | 0.309 | 0.476 | 0.476 | 0.559 | 0.509 | 0.462
NCI-H727 | 0.876 | 1.05 | 1.16 | 1.12 | 1.05 | 0.827 | 0.829 | 1.03 | 0.737 | 0.893 | 0.815 | 0.932 | 0.79 | 0.843 | 0.81
NCI-H1734 | 0.781 | 0.81 | 0.799 | 0.732 | 0.764 | 0.876 | 0.893 | 0.853 | 0.779 | 0.823 | 0.469 | 0.493 | 0.501 | 0.545 | 0.432
NCI-H1993 | 0.723 | 0.787 | 0.755 | 0.71 | 0.664 | 0.932 | 0.838 | 0.963 | 0.785 | 0.892 | 0.633 | 0.672 | 0.622 | 0.62 | 0.572
HCC-827 | 1.08 | 1.08 | 1.07 | 0.927 | 0.904 | 0.981 | 1.06 | 1.07 | 1.17 | 1.07 | 0.318 | 0.361 | 0.277 | 0.351 | 0.313
NCI-H1437 | 1.26 | 1.21 | 1.25 | 1.19 | 1.06 | 0.535 | 0.53 | 0.522 | 0.414 | 0.486 | 0.515 | 0.674 | 0.57 | 0.596 | 0.466
EPLC-272H | 0.628 | 0.538 | 0.515 | 0.764 | 0.479 | 0.966 | 0.879 | 0.893 | – | 1 | 0.385 | – | 0.329 | 0.356 | 0.35
NCI-H2126 | 1.19 | 1.11 | 1 | 1.05 | 1.05 | 1.09 | 1.08 | 1.06 | 1.06 | 1.08 | 0.646 | 0.617 | 0.578 | 0.622 | 0.513
NCI-H1666 | 1.06 | 0.902 | 0.951 | 0.963 | 0.922 | 0.771 | 0.723 | 0.872 | 0.648 | 0.764 | 0.662 | 0.851 | 0.742 | 0.664 | 0.601
RERF-LC-KJ | 0.87 | 0.879 | 0.964 | 0.825 | 0.757 | 0.908 | 1.06 | 1.27 | 0.961 | 1.01 | 0.762 | 0.756 | 0.609 | 0.819 | 0.681
ABC-1 | 1.1 | 0.806 | 0.817 | 1.1 | 0.835 | 0.325 | 0.243 | 0.348 | 0.315 | 0.29 | 1.4 | 1.03 | 1.03 | 0.899 | 1.07
ChaGo-K-1 | 0.989 | 0.871 | 0.926 | 0.827 | 0.876 | 0.866 | 1.02 | 1.02 | 0.984 | 1.16 | 0.507 | 0.58 | 0.587 | 0.535 | 0.506
